Experimental data from patent US6673827B1, “Methods of treating fungal infections with inhibitors of NAD synthetase enzyme” (priority 1999, dated 2004).
pIC50: −log10 of the molar value. In brackets after ≈: the same amount, converted by molar mass. Where two headings read alike, the source gives them in different places.

Key:
[1] = test system: Candida tropicalis ATCC 750; assay: In vitro study of inhibition of growth and lethality against yeast (MIC/MLC susceptibility test), isolate A; format: cell-based; settings: Candida tropicalis, 2nd pair of lines, isolate assigned by line order; for MFC: ATCC750, read-out: Minimum Lethal Conc. (MLC)
[2] = test system: Candida tropicalis ATCC 28707; assay: In vitro study of inhibition of growth and lethality against yeast (MIC/MLC susceptibility test), isolate B; format: cell-based; settings: Candida tropicalis, 1st pair of lines, isolate assigned by line order; for MFC: ATCC28707, read-out: Minimum Lethal Conc. (MLC)
[3] = test system: Torulopsis glabrata ERH-BC9938274; assay: In vitro study of inhibition of growth and lethality against yeast (MIC/MLC susceptibility test), isolate F; format: cell-based; settings: Torulopsis glabrata, 1st pair of lines, isolate assigned by line order; for MIC / MFC: Nakaseomyces glabratus; for MFC: ERHBC9938274, read-out: Minimum Lethal Conc. (MLC)
[4] = biological target: T1, NAD synthetase (recombinant protein from B. subtilis; purified) (Bacillus subtilis, UniProt P08164); assay: NAD synthetase enzyme inhibition assay (coupled enzymatic assay, HTS); format: biochemical; settings: IC50 (μg/mL) for Inhibit. of NAD Synthetase, table of structures used in the yeast assay (Example 4)
T1 construct: made in house
T1 sequence (P08164 whole entry): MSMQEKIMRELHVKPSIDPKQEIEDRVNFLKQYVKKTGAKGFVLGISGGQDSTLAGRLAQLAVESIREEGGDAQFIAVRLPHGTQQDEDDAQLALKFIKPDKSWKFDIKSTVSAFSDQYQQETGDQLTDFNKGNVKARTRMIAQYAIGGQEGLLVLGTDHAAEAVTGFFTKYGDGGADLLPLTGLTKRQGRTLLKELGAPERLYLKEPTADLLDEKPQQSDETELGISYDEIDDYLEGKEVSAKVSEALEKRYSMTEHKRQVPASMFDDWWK
Procedure: NAD Synthetase Enzyme Inhibition Assay-Determination of Test Compound Concentrations Providing 50% Inhibition ([…]) of the Maximum Enzyme Rate
The potential inhibitory activity of the synthetic compounds was determined by the use of a coupled enzymatic assay. The coupled assay involves two steps as summarized below. [drawing 98]
The measurement of inhibitory activities of the test compounds was facilitated by the use of a high through-put screening system (HTS system). The HTS system utilizes an integrated Sagian 2M ORCA robotic system coordinating the functions of a Beckman Biomek 2000 liquid handler and a Molecular Devices SpectraMax Plus spectrophotometer. The 2M ORCA robotic station is responsible for the movement of all hardware and the integration of multiple stations on the worksurface. The Biomek 2000 is programmed to perform all phases of liquid dispensing and mixing. The SpectraMax Plus spectrophotometer is equipped to monitor absorbance in a 96-well plate format.
The Biomek 2000 mixes these components utilizing a predefined mixing program. […] The reaction is monitored by measuring the increase in absorbance at 340 nm (NADH). The linear portion of the reaction is monitored for 180 sec. The initial velocity is determined using Softmax Pro, the software supplied with the Molecular Devices SpectrMax Plus spectrophotometer.
The test compounds were supplied as a stock solution with a concentration of 50 mM dissolved in 100% dimethyl sulfoxide (DMSO). An initial screen was conducted on all compounds using a 2 or 3 concentration screen. The 2 panel screen used concentrations of 0.2 mM and 0.1 mM for the compounds. The 3 panel screen used concentrations of 0.2 mM, 0.1 mM, and 0.05 mM. […] The IC50 values for each compound were determined graphically from a plot of % inhibition versus […].

[5] = test system: Candida albicans LH-000664533; assay: In vitro study of inhibition of growth and lethality against yeast (MIC/MLC susceptibility test), isolate D; format: cell-based; settings: Candida albicans, 2nd pair of lines, isolate assigned by line order; for MFC: LH000664533, read-out: Minimum Lethal Conc. (MLC)
[6] = test system: Cryptococcus neoformans DLB-1027594CNC; assay: In vitro study of inhibition of growth and lethality against yeast (MIC/MLC susceptibility test), isolate G; format: cell-based; settings: Cryptococcus neoformans, 1st pair of lines, isolate assigned by line order; for MIC / MFC: DLB1027594CNC; for MFC: read-out: Minimum Lethal Conc. (MLC)
[7] = test system: Torulopsis glabrata JHC-BC9951635; assay: In vitro study of inhibition of growth and lethality against yeast (MIC/MLC susceptibility test), isolate E; format: cell-based; settings: Torulopsis glabrata, 2nd pair of lines, isolate assigned by line order; for MIC / MFC: Nakaseomyces glabratus; for MFC: JHCBC9951635, read-out: Minimum Lethal Conc. (MLC)
[8] = test system: Cryptococcus neoformans SLP-BC0012854; assay: In vitro study of inhibition of growth and lethality against yeast (MIC/MLC susceptibility test), isolate H; format: cell-based; settings: Cryptococcus neoformans, 2nd pair of lines, isolate assigned by line order; for MFC: SLPBC0012854, read-out: Minimum Lethal Conc. (MLC)
[9] = test system: Candida albicans KJP-000531594; assay: In vitro study of inhibition of growth and lethality against yeast (MIC/MLC susceptibility test), isolate C; format: cell-based; settings: Candida albicans, 1st pair of lines; for MFC: KJP000531594, read-out: Minimum Lethal Conc. (MLC)
[10] = ATCC750, 24 h, read at 24 hr, read-out: Minimum Inhibitory Conc. (MIC), 24 hr.
[11] = ATCC750, 48 h, read at 48 hr, read-out: Minimum Inhibitory Conc. (MIC), 48 hr.
[12] = ATCC28707, 24 h, read at 24 hr, read-out: Minimum Inhibitory Conc. (MIC), 24 hr.
[13] = ATCC28707, 48 h, read at 48 hr, read-out: Minimum Inhibitory Conc. (MIC), 48 hr.
[14] = ERHBC9938274, 24 h, read at 24 hr, read-out: Minimum Inhibitory Conc. (MIC), 24 hr.
[15] = ERHBC9938274, 48 h, read at 48 hr, read-out: Minimum Inhibitory Conc. (MIC), 48 hr.
[16] = LH000664533, 24 h, read at 24 hr, read-out: Minimum Inhibitory Conc. (MIC), 24 hr.
[17] = LH000664533, 48 h, read at 48 hr, read-out: Minimum Inhibitory Conc. (MIC), 48 hr.
[18] = 48 h, read at 48 hr, read-out: Minimum Inhibitory Conc. (MIC), 48 hr.
[19] = 72 h, read at 72 hr, read-out: Minimum Inhibitory Conc. (MIC), 72 hr.
[20] = JHCBC9951635, 24 h, read at 24 hr, read-out: Minimum Inhibitory Conc. (MIC), 24 hr.
[21] = JHCBC9951635, 48 h, read at 48 hr, read-out: Minimum Inhibitory Conc. (MIC), 48 hr.
[22] = SLPBC0012854, 48 h, read at 48 hr, read-out: Minimum Inhibitory Conc. (MIC), 48 hr.
[23] = SLPBC0012854, 72 h, read at 72 hr, read-out: Minimum Inhibitory Conc. (MIC), 72 hr.
[24] = KJP000531594, 24 h, read at 24 hr, isolate not given, assigned by line order and MLC of Table 4B, read-out: Minimum Inhibitory Conc. (MIC), 24 hr.
[25] = KJP000531594, 48 h, read at 48 hr, isolate assigned by line order, read-out: Minimum Inhibitory Conc. (MIC), 48 hr.

Compound	MFC [1] [µg/mL]	MIC [1, 10] [µg/mL]	MIC [1, 11] [µg/mL]	MFC [2] [µg/mL]	MIC [2, 12] [µg/mL]	MIC [2, 13] [µg/mL]	MIC [3, 14] [µg/mL]	MIC [3, 15] [µg/mL]	MFC [3] [µg/mL]	pIC50 [4]	MIC [5, 16] [µg/mL]	MIC [5, 17] [µg/mL]	MFC [5] [µg/mL]	MIC [6, 19] [µg/mL]	MFC [6] [µg/mL]	MIC [7, 20] [µg/mL]	MIC [7, 21] [µg/mL]	MFC [7] [µg/mL]	MIC [8, 22] [µg/mL]	MIC [8, 23] [µg/mL]	other results
COC(=O)c1cc2ccccc2[n+](C)c1-c1c[nH]c2ccccc12.[I-] [Compound 1500]	> 32	32	> 32	8	4	8	32	> 32	> 32	< 3.35	32	> 32	> 32	32	> 32	32	> 32	> 32	32	32	Minimum Inhibitory Conc. (MIC), 24 hr. ([1]; read at 24 hr): >32 µg/mL; Minimum Inhibitory Conc. (MIC), 24 hr. ([3]; read at 24 hr): >32 µg/mL; Minimum Inhibitory Conc. (MIC), 24 hr. ([5]; read at 24 hr): >32 µg/mL; Minimum Inhibitory Conc. (MIC), 72 hr. ([6]; read at 72 hr): >32 µg/mL; MIC [6, 18]: 32 µg/mL; Minimum Inhibitory Conc. (MIC), 24 hr. ([7]; read at 24 hr): >32 µg/mL; Minimum Inhibitory Conc. (MIC), 72 hr. ([8]; read at 72 hr): >32 µg/mL; MFC [8]: > 32 µg/mL; Minimum Inhibitory Conc. (MIC), 24 hr. ([9]; read at 24 hr, isolate not given, assigned by line order and MLC of Table 4B): >32 µg/mL; MIC [9, 24]: 32 µg/mL; MIC [9, 25]: > 32 µg/mL; MFC ([9]; isolate assigned by line order): > 32 µg/mL
Cc1[nH]c2ccccc2c1/C=C/C1=[N+](C)c2ccccc2C1(C)C.[Cl-] [Compound 1400]	> 32	> 32	> 32	16	16	32	> 34	> 32	> 32	< 3.24	> 32	> 32	> 32	> 32	> 32	> 33	> 32	> 32	> 32	> 32	Minimum Inhibitory Conc. (MIC), 48 hr. ([2]; read at 48 hr): 16 µg/mL; Minimum Inhibitory Conc. (MIC), 24 hr. ([3]; read at 24 hr): >32 µg/mL; MIC [6, 18]: > 32 µg/mL; Minimum Inhibitory Conc. (MIC), 24 hr. ([7]; read at 24 hr): >32 µg/mL; MFC [8]: > 32 µg/mL; MIC [9, 24]: > 32 µg/mL; MIC [9, 25]: > 32 µg/mL; MFC ([9]; isolate assigned by line order): > 32 µg/mL
C[N+](C)(C)C(Cc1ccccc1)C(=O)OCCCCCCCCOc1ccc(OCc2ccccc2)cc1.[I-] (stereo not drawn) [Compound 1230]	1	1	1	1	0.5	0.5	2	2	2	4.51	2	4	2	1	4	1	2	2	1	1	Minimum Inhibitory Conc. (MIC), 24 hr. ([5]; read at 24 hr): 1 µg/mL; Minimum Inhibitory Conc. (MIC), 48 hr. ([5]; read at 48 hr): 2 µg/mL; Minimum Inhibitory Conc. (MIC), 48 hr. ([6]; read at 48 hr): 0.5 µg/mL; Minimum Inhibitory Conc. (MIC), 72 hr. ([6]; read at 72 hr): 2 µg/mL; MIC [6, 18]: 1 µg/mL; Minimum Inhibitory Conc. (MIC), 24 hr. ([7]; read at 24 hr): 2 µg/mL; Minimum Inhibitory Conc. (MIC), 72 hr. ([8]; read at 72 hr): 2 µg/mL; MFC [8]: 4 µg/mL; MIC [9, 24]: 1 µg/mL; MIC [9, 25]: 2 µg/mL; MFC ([9]; isolate assigned by line order): 2 µg/mL
COC(=O)c1cc2cc(OCc3ccccc3)ccc2n1CCCCCCCOC(=O)c1ccc(CN(C)C)cc1 [Compound 1096]	> 32	> 32	> 32	16 (≈ 28.7 µM)	4 (≈ 7.19 µM)	8 (≈ 14.4 µM)	> 32	> 32	> 32	3.75	> 32	> 32	> 32	> 32	> 32	> 32	> 32	> 32	> 32	> 32	Minimum Inhibitory Conc. (MIC), 24 hr. ([2]; read at 24 hr): 2 µg/mL; Minimum Inhibitory Conc. (MIC), 48 hr. ([2]; read at 48 hr): 16 µg/mL; Minimum Inhibitory Conc. (MIC), 72 hr. ([6]; read at 72 hr): 16 µg/mL; Minimum Inhibitory Conc. (MIC), 48 hr. ([8]; read at 48 hr): 32 µg/mL; Minimum Inhibitory Conc. (MIC), 72 hr. ([8]; read at 72 hr): 32 µg/mL; MFC [8]: > 32 µg/mL; MIC [9, 24]: > 32 µg/mL; MIC [9, 25]: > 32 µg/mL; MFC ([9]; isolate assigned by line order): > 32 µg/mL
